pEC50: −log10 of the molar value. Activity calls are given as the source filed them. The rule behind the calls is not given here.
Experiments:
Type in all cases: cell-based
Adenylate cyclase type 8 [1] = molecular target: T1, Adenylate cyclase type 8 (Homo sapiens, UniProt P40145); assay: Agonist activity at recombinant human AC8 expressed in human HEK293 cells assessed as fold increase in cAMP level by LANCE Ultra cAMP Detection kit method
Adenylate cyclase type 8 [2] = molecular target: T1, Adenylate cyclase type 8; assay: Agonist activity at recombinant human AC8 expressed in human HEK293 cells assessed as fold increase in cAMP level at 50 uM by LANCE Ultra cAMP Detection kit method relative to control
[3] = molecular target: Adenylate cyclase type 1 (Homo sapiens) (UniProt Q08828); assay: Agonist activity at recombinant human AC1 expressed in human HEK293 cells assessed as increase in cAMP level at 50 uM by LANCE Ultra cAMP Detection kit
Adenylate cyclase type 1 (Homo sapiens), sequence (Q08828 whole entry, looked up): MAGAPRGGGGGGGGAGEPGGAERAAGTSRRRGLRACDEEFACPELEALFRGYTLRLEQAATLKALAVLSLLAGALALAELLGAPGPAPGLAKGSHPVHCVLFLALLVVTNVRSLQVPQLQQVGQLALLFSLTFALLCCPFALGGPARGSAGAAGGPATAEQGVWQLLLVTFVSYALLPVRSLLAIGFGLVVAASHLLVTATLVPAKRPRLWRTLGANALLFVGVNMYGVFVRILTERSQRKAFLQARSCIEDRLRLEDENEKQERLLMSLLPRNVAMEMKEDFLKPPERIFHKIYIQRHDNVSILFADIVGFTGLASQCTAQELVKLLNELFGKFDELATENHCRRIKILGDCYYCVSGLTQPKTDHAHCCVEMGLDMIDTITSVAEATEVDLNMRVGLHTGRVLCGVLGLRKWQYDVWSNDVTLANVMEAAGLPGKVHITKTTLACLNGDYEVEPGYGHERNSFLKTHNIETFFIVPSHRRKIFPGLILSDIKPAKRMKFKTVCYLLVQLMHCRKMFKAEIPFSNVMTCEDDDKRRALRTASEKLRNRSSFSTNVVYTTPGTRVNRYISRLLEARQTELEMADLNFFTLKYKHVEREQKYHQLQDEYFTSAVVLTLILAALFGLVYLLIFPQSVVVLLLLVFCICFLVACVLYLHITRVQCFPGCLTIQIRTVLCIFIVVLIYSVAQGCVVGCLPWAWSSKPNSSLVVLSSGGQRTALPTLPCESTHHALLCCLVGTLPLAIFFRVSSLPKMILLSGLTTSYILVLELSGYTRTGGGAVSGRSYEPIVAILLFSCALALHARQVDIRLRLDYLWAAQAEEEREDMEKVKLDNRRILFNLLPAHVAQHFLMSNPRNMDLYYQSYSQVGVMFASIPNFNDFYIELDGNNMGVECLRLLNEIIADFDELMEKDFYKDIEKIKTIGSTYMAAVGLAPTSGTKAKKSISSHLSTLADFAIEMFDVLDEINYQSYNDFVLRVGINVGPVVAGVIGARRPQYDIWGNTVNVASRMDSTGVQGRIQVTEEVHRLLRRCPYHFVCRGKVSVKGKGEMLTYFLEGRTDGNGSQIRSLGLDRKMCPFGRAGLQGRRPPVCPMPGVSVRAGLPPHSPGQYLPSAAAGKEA

[4] = molecular target: Adenylate cyclase type 2 (Homo sapiens) (UniProt Q08462); assay: Agonist activity at recombinant human AC2 expressed in human HEK293 cells assessed as increase in cAMP level at 50 uM by LANCE Ultra cAMP Detection kit method
Adenylate cyclase type 2 (Homo sapiens), sequence (Q08462 whole entry): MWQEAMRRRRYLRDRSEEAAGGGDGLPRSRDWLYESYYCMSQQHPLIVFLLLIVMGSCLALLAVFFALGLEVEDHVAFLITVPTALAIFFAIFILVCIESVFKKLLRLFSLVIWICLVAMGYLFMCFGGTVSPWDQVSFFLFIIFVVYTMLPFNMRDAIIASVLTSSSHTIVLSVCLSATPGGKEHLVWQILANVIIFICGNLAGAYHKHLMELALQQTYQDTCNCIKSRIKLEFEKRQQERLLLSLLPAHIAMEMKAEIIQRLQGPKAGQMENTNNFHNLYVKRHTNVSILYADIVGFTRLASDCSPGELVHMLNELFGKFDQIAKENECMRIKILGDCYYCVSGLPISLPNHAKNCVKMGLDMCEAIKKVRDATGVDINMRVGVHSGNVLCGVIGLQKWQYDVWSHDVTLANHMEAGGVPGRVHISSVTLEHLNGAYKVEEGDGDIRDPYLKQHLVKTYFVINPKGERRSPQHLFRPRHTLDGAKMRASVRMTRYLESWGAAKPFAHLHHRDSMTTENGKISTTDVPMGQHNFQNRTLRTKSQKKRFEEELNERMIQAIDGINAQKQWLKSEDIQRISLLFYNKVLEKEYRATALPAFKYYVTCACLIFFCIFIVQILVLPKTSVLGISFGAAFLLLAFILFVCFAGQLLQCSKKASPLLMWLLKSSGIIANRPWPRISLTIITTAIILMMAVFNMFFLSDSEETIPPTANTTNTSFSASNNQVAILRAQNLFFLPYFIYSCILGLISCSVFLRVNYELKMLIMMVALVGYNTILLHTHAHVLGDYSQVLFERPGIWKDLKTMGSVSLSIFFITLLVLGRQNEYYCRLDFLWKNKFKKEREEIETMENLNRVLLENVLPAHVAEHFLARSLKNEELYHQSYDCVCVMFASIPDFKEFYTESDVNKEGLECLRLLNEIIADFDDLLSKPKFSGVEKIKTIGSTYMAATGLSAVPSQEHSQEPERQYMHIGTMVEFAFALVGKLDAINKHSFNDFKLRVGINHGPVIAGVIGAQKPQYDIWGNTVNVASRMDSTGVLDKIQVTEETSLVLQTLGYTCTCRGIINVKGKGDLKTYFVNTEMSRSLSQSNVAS

[5] = molecular target: Adenylate cyclase type 5 (Homo sapiens) (UniProt O95622); assay: Agonist activity at recombinant human AC5 expressed in human HEK293 cells assessed as increase in cAMP level at 50 uM by LANCE Ultra cAMP Detection kit method
Adenylate cyclase type 5 (Homo sapiens), sequence (O95622 whole entry, looked up): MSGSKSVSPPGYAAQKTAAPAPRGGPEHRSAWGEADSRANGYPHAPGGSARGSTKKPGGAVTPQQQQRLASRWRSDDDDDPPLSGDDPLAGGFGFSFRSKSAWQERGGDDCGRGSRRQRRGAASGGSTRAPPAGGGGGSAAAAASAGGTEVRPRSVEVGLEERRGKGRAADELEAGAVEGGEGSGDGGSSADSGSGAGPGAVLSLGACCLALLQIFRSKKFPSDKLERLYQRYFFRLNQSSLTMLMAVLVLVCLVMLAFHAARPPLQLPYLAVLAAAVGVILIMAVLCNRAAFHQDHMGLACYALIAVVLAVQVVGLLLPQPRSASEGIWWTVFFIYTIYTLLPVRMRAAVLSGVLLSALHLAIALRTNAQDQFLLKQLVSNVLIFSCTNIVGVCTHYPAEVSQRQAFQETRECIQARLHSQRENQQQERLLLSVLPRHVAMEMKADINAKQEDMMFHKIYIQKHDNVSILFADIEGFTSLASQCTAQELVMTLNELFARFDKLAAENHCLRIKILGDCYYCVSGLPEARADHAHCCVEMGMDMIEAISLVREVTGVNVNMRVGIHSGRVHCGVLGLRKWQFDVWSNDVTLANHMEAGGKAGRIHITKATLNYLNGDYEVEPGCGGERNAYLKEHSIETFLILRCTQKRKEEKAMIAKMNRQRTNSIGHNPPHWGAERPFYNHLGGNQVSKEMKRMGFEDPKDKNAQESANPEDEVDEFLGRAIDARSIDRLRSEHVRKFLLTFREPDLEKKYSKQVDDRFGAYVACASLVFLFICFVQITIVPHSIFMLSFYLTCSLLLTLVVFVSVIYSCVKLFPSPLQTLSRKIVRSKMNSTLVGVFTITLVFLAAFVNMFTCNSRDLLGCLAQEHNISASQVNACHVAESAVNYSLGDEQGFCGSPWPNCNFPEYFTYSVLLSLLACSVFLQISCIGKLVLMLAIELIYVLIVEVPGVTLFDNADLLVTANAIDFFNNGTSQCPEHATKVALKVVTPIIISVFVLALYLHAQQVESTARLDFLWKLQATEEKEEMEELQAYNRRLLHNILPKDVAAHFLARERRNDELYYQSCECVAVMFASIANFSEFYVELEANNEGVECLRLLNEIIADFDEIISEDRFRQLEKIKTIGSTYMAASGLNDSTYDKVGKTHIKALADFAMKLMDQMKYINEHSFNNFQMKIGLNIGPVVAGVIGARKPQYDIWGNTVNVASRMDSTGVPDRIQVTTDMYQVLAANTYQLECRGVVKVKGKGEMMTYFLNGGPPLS

T1 sequence (P40145 whole entry): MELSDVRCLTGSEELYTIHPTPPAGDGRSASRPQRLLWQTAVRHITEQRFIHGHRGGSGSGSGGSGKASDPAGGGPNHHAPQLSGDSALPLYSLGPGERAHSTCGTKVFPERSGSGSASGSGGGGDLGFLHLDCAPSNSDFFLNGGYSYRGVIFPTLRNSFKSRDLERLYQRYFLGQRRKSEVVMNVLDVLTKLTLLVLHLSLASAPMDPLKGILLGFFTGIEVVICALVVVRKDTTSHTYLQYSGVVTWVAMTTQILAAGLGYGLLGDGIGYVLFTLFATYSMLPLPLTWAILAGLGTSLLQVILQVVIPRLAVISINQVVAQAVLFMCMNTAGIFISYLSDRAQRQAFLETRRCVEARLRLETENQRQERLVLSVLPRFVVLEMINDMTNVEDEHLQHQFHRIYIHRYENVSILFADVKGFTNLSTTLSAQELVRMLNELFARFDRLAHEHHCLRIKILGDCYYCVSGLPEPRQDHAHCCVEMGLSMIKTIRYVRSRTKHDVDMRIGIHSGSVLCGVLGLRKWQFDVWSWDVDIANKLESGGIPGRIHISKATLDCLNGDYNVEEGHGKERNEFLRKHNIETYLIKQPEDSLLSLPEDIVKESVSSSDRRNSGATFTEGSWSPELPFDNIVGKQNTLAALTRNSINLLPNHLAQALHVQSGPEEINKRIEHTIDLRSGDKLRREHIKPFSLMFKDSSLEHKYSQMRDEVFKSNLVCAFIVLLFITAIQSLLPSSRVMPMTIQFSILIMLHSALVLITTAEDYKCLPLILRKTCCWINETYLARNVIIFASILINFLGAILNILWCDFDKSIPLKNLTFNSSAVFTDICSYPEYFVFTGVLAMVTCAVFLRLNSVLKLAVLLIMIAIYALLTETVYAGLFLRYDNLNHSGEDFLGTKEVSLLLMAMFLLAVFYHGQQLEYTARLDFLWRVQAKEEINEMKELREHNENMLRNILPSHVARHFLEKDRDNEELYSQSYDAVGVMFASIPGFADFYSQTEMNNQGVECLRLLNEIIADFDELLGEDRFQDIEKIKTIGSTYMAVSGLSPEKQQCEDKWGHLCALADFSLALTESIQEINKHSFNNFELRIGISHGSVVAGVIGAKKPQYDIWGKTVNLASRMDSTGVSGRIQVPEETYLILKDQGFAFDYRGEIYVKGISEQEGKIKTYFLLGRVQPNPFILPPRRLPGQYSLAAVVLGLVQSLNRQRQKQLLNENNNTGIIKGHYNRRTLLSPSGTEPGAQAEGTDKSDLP

| Activity (Adenylate cyclase type 8 [1]) | pEC50 (Adenylate cyclase type 8 [1]) | fold change (FC) (Adenylate cyclase type 8 [2]) | Activity [3] | Activity [4] | Activity [5] | SMILES |
| --- | --- | --- | --- | --- | --- | --- |
| Dose-dependent effect | 6.98 | 33 | inactive | inactive | inactive | CCOC(=O)C1(Cc2ccc(Cl)cc2Cl)C(=O)Nc2ccccc21 (stereo not drawn) |
| – | 7.03 | 35 | – | – | – | C=C[C@@]1(C)CC(=O)[C@]2(O)[C@@]3(C)[C@@H](O)CCC(C)(C)[C@@H]3[C@H](O)[C@H](OC(C)=O)[C@@]2(C)O1 [COLFORSIN] |

— ChEMBL document CHEMBL4602624, “Discovery of a potent and selective adenylyl cyclase type 8 agonist by docking-based virtual screening” (Bioorg Med Chem Lett, 2020)
